In patent publication US20250177392A1, “BROAD SPECTRUM INHIBITORS OF CYTOMEGALOVIRUS” (MICROBIOTIX, INC., priority 2022, published 2025):
pIC50: −log10 of the molar value. ≈ marks a conversion by molar mass, not a printed value.

What was measured:
CMV AD169^IE2-YFP = experiment: Anti-CMV activity (IC50) of NAPA compounds, AD169 IE2-YFP reporter virus high-content assay in fibroblasts; format: cell-based, Human cytomegalovirus; conditions: Human betaherpesvirus 5, AD169, Fibroblast
Method: To identify CMV inhibitors, a high-content screening (HCS) early-stage-specific reporter assay using a CMV AD169 yellow-fluorescent protein (YFP) expressing virus (AD169^IE2-YFP) (Gardner et al., Antiviral Res., 113:49-61 (2015)) was developed to screen >112,000 compounds to identify potent inhibitors (IC50<10 μM) of cytomegalovirus having a minimal mammalian cytotoxicity (CC50) of preferably ≥100 μM. As a result, we have identified, isolated, and characterized a novel series of N-arylpyrimidinamines (NAPAs) that inhibit CMV infection. […] Further, the NAPA compounds are broadly effective at inhibiting virus infection of diverse strains and cell types.
The CMV IE1 and IE2 gene products are translated within 3-6 hours post infection (hpi) and function to stimulate viral promoters to initiate transcription of early and late viral genes (Cherrington et al., J. Virol., 63:1435-40 (1989); Meier et al., J. Virol., 71:1246-1255 (1997)). The CMV AD169 variant that expresses a viral protein chimera consisting of IE2-YFP (AD1691E2/YFP) was utilized to quantify virus infection in a high-throughput screen by a robust fluorescent signal localized exclusively to the nucleus (8-24 hpi) (Gardner et al., supra (2015); Cohen et al., Viruses, 8 (10): 295 (2016); Cohen et al., J. Virol., 90:10715-10727 (2016)). Using the AD1691E2-YFP reporter virus assay, a collection of the compound libraries (>112,000 compounds) was screened for inhibitors of the early stages of CMV replication using a confocal fluorescence microscopic plate reader (BioTek Cytation3). Infection was calculated as a percentage of nuclei containing YFP and cycloheximide (8 μM) was used as a positive control. The Z′ factor for the optimized assay was >0.5 which was sufficient to initiate screening.
We evaluated 300 primary hits using an assay funnel designed to prioritize compounds based on antiviral activity, specificity, and drug-like properties. This identified two candidates for hit-to-lead optimization that were not Pan Assay Interference compounds (PAINS) (Baell et al., J. Med. Chem., 53:2719-40 (2010); Capuzzi et al., J. Chem. Inf. Model 57:417-427 (2017); Dahlin et al., Assay Drug Dev. Technol., 14:168-174 (2016)). […] The NAPA series was chosen as the primary hit-to-lead series due to its synthetic accessibility and the >2-log range in potency observed in the preliminary SAR that provides a clear pathway to improving antiviral activity and drug-like properties.

[1] = Cytotoxicity (CC50) against Hela cells for 3 d; format: cell-based; conditions: human
[2] = Maximum solubility in water by nephlometry; format: physicochemical; conditions: Maximum solubility in water determined by nephlometry; for solubility kinetic: kinetic from dmso stock
[3] = Murine liver microsome stability; format: in vitro ADME; conditions: % remaining after 30 min at 37° C. in the presence of NADPH
CYP3A4 = CYP3A4 (Homo sapiens, UniProt P08684); experiment: CYP3A4 inhibition at 10 μM; format: in vitro ADME; conditions: % inhibition of CYP3A4 at 10 μM
Sequence of CYP3A4 (P08684 whole entry, species assumed): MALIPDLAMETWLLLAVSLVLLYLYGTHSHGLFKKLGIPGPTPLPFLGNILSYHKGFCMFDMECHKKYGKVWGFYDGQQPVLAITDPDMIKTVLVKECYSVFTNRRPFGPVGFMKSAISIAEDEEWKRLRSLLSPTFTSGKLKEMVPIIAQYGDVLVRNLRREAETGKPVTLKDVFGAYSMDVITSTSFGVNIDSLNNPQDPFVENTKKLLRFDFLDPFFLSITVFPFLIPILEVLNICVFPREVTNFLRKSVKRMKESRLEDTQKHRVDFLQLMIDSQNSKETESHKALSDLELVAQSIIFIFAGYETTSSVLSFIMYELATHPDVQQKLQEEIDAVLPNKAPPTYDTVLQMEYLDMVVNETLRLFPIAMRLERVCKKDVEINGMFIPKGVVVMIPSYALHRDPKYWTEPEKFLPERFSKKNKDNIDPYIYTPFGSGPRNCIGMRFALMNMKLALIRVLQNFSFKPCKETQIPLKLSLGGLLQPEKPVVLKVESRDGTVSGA

HCMV strain AD169^R = experiment: CMV infection (neutralization) assay, GFP/IE1 readout 24 hpi, AD169^R; format: cell-based, Human cytomegalovirus
Method: (§1) Fibroblasts and ARPE-19 cells (10^4) were plated in 96-well plates (Greiner, Monroe, NC). The following day the cells were pretreated for 1 hour at 37° C. with increasing concentrations of the respective novel NAPA compounds described herein or DMSO in triplicate prior to infection with the respective viruses. At 18 hours post infection (hpi) cells were stained using a rabbit anti-IE1 antibody followed by an anti-rabbit Alexa 647 and measured using a Celigo Cytometer (Parsons et al., Antiviral Res., 193:105124 (2021); Stein et al., Nat. Commun., 10:2699 (2019)). Using the DMSO treated cells as 100% infection, the percent infection of the NAPA compound-treated cells was determined. The half maximal inhibitory (IC50) values were calculated using Prism9's nonlinear fit [inhibitor]-vs-response (four parameters) analysis of these averages and extrapolation to the concentration that would produce 50% infection relative to DMSO treatment.
(§2) To further evaluate the inhibitory properties of MBXC-4302 against CMV, we utilized the AD169 CMV virus strain containing the UL131-UL128 open reading frame of the HCMV strain TR and expressing EGFP (AD169^R) (Wang D. and Shenk T., Proc. Nat. Acad. Sci., USA, 102:18153-18158 (2005)) and TB40/E infection of human fibroblasts (NHDF) and ARPE-19 epithelial cells in the presence of increasing concentration of compound (FIG. 2A-D). Infection was analyzed 24 hours post infection (hpi) by measuring GFP fluorescence encoded by AD169^R or using an anti-IE1 antibody for staining TB40/E infected cells.
NAPA variants with modified groups were evaluated for inhibition of CMV infection in fibroblasts. AD169^R infected fibroblasts were treated with NAPA compounds MBX-4992, MBXC-4325, MBXC-4330, and MBXC-4336 (0-50 μM) and analyzed for infection at 24 hpi (FIG. 6A-D). The infected cells were probed for IE1 as an indication of virus infection.

HCMV strain TB40/E = experiment: CMV infection (neutralization) assay, IE1 immunostain 24 hpi, TB40/E; format: cell-based, Human cytomegalovirus
Method: as §1, with “The half maximal inhibitory (IC50) values were calculated using Prism9's nonlinear fit [inhibitor]-vs-response (four parameters) analysis of these averages and extrapolation to the concentration that would produce 50% infection relative to DMSO treatment.” left out
as §2

AD169^R (IE1 expression) = experiment: Western blot (immunoblot) of IE1 expression in AD169^R-infected cells; format: cell-based, Human cytomegalovirus; conditions: NHDF cells, 24 hpi; MBX-4992 1-10 μM, ganciclovir 5 μM, convallotoxin 0.01 μM
Method: The molecular weight markers and respective proteins are indicated.
FIGS. 12A and B are Western Blot assays showing that MBXC-4336 limits expression of IE1 in fibroblasts and epithelial cells. Total cell lysates from AD169^R-infected (MOI 0.2) NHDF (A) and ARPE-19 (B) cells pre-treated with DMSO, MBX-4336 (0, 1, 5, 10, or 20 μM), or heparin (50 μg/mL) collected at 48 hpi were subjected to Western blot analysis using a rabbit anti-IE-1 antibody (lanes 1-7) and an anti-GAPDH antibody (lanes 8-14) as a loading control. The molecular weight markers and respective proteins are indicated.
Total cell lysates from virus infected NHDF cells treated with compounds were created through SDS-lysis (10^4/100 uL of 1% SDS) of at least three rounds of heating at 95° C. for 3 min and vigorous agitation. The total cell lysates were resolved using an SDS-polyacrylamide gel (12.5%), transferred to a PVDF membrane using a semi-dry apparatus. The membrane was then incubated with 1% BSA/PBS for 1 hr at room temperature followed by incubation with anti-IE1 and anti-GAPDH. Finally, the respective secondary antibody conjugated with HRP was incubated with membrane followed by detection using ECL reagents (Millipore).
Next, inhibition of the expression of IE1 in AD169^R-infected cells treated with MBX-4992 was examined by immunoblot analysis (FIG. 4E). […] Collectively, these findings further indicate that MBX-4992 effectively prevents the expression of the immediate-early genes during a CMV infection.

Row | Compound | pIC50 (CMV AD169^IE2-YFP) | CC50 at 3 d [1] | solubility kinetic [2] | MLMS [3] | CYP (CYP3A4) | Sol [2] | pIC50 (HCMV strain AD169^R; Human betaherpesvirus 5, AD169, ARPE-19) | pIC50 (HCMV strain AD169^R; Human betaherpesvirus 5, AD169, NHDF) | pIC50 (HCMV strain TB40/E; Human betaherpesvirus 5, ARPE-19) | pIC50 (HCMV strain TB40/E; Human betaherpesvirus 5, NHDF) | IE1 expression by immunoblot (AD169^R (IE1 expression))
1 | Cc1nc(Nc2ccc(NC(=O)c3ccco3)cc2)cc(N(C)C)n1 [MBX-4991] | 5.64 | > 100 µM | > 200 µM | 65% | 18% | – | – | – | – | – | –
2 | Cc1nc(Nc2ccc(NC(=O)c3cccs3)cc2)cc(N(C)C)n1 [MBXC-4294] | < 4.40 | 57 µM | – | – | – | – | – | – | – | – | –
3 | Cc1nc(Nc2ccc(NC(=O)c3ccco3)cc2)cc(N2CCCCC2)n1 [MBXC-4295] | 6.34 | 54 µM | 50 µM (≈ 18.9 µg/mL) | 36% | <10% | – | – | – | – | – | –
4 | Cc1ccc(Nc2cc(Nc3ccc(NC(=O)c4ccco4)cc3)nc(C)n2)cc1 [MBXC-4297] | 6.43 | 21 µM | 25 µM (≈ 9.99 µg/mL) | 44% | <10% | – | – | – | – | – | –
5 | CCNc1cc(Nc2ccc(NC(=O)c3ccco3)cc2)nc(C)n1 [MBXC-4298] | 5.43 | 29 µM | 200 µM (≈ 67.5 µg/mL) | 64% | 50% | – | – | – | – | – | –
6 | Cc1ccc(Nc2nc(C)cc(Nc3ccc(NC(=O)c4ccco4)cc3)n2)cc1 [MBXC-4299] | 6.49 | 5.5 µM | – | 68% | < 10% | – | – | – | – | – | –
7 | Cc1ccc(Nc2nc(C)cc(Nc3ccc(NC(=O)Nc4cccc(Cl)c4)cc3)n2)cc1 [MBXC-4300] | 5.42 | 2.7 µM | – | N/A 60% | N/A 10% | N/A 3.1 μM | – | – | – | – | –
8 | Cc1ccc(Nc2nc(C)cc(Nc3ccc(NS(=O)(=O)c4ccccc4)cc3)n2)cc1 [MBXC-4301] | 4.62 | 11 µM | – | – | – | – | – | – | – | – | –
9 | Cc1nc(Nc2ccc(NC(=O)c3ccco3)cc2)cc(-n2cccn2)n1 [MBXC-4302] | 5.49 | > 100 µM | 12.5 µM (≈ 4.5 µg/mL) | 62% | <10% | – | 5.24 | 5.52 | ~5.28 | ~5.28 | –
10 | Cc1cc(Nc2ccccc2)nc(Nc2ccc(NC(=O)c3ccc(Cl)cc3)cc2)n1 [MBXC-4303] | 4.70 | 7 µM | – | – | – | – | – | – | – | – | –
11 | Cc1ccc(Nc2cc(C)nc(Nc3ccc(NC(=O)c4ccco4)cc3)n2)cc1 [MBXC-4304] | 6.32 | 5.8 µM | – | 63% | 16% | – | – | – | – | – | –
12 | C[C@@H]1O[C@@H](O[C@H]2CC[C@]3(C=O)[C@H]4CC[C@]5(C)[C@@H](C6=CC(=O)OC6)CC[C@]5(O)[C@@H]4CC[C@]3(O)C2)[C@H](O)[C@H](O)[C@H]1O [convallatoxin, reference compound] | – | – | – | – | – | – | – | – | – | – | prevented infection
